Test results published in PubChem BioAssay AID1918944 (Molecular Pharmacology Branch, DTP, NCI, 2023).
“And” between values parts separate entries of the source, which are not always exact repeats. Equal values may be shown once.

Tested on: 786-0 complex spheroid viability
Assay: Anticancer human tumor 786-0 cell line growth inhibition;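 further: spheroids exposed to agents for seven days before readout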
Conditions: for viability, T/C: stronger effect = lower value
Excerpt: Multicellular complex tumor spheroid response to LSD1 Inhibitor Iadademstat in combination with a variety of drugs and investigational agents in selected tumor cell lines
The current study was undertaken to assess response to LSD1 inhibitors in combination with standard-of-care drugs and investigational agents in solid tumor complex spheroid models as well as in the K-562 leukemia. Complex spheroids include a stromal component modeled by human endothelial cells (HUVEC) and fibroblasts modeled by human mesenchymal stem cells (MSCs). The concentration ranges selected for each drug and investigational agent were based upon clinically achievable concentrations if the clinical Cmax of the agent was known.
Compounds. The drugs and investigational agents used in this study are listed on Table 1. All of the agents used, including staurosporine (NSC755774) and gemcitabine (NSC613327), were obtained from the Developmental Therapeutics Program, NCI. FDA-approved anticancer drugs are available from the NCI at http://dtp.nci.nih.gov/branches/dscb/oncology_drugset_explanation.html. Drugs and investigational agents were >95% pure by proton nuclear magnetic resonance (NMR) and liquid chromatography/mass spectrometry (LC/MS). Stock solutions were prepared at 400x in DMSO, stored at -70 degrees C, and diluted in fresh medium prior to their use. The final concentration of DMSO in cell culture wells never exceeded 0.25% (v/v). The FDA-approved anticancer drug set is available from the Developmental Therapeutics Program at https://dtp.cancer.gov/organization/dscb/obtaining/available_plates.htm. All drugs and investigational agents were tested over a range starting from a high concentration at or near the clinical Cmax and decreasing in half-log increments. If the clinical Cmax for an agent had not been determined, the highest concentration tested was 10 microM.
Cell Lines. The patient-derived cancer cell (PDC) lines: 292921-168-R-J2-PDC, K24384-001-R-PDC, and 521955-158-R2-J5-PDC pancreatic carcinomas, 556581-035-R-J1 ovarian carcinoma, 324938-238-R-J1-PDC, 855422-203-R-J1-PDC and 883617-216-R-J1-PDC urothelial bladder carcinomas, 743489-274-T-PDC renal cell carcinoma, 138582-R-J1 Merkel cell tumor, K60290-347-R-J1 and K57222-313-R-J1-PDC glioblastomas, 653999-131-R-J2-PDC, LG0703-F948-PDC, and 349418-098-R-PDC non-small cell lung carcinomas, 885512-296-R-J2-PDC, 171881-019-R-J1-PDC breast carcinomas and 186277-243-T-J2-PDC and 233499-124-R-J2-PDC colon carcinomas were obtained from the NCI Patient-Derived Models Repository (PDMR, https://pdmr.cancer.gov). The established cell lines NCI/ADR-RES (RRID:CVCL_14520 and OVCAR-5 (RRID:CVCL_1628) ovarian carcinomas, 786-O (RRID:CVCL_1051) and A498 (RRID:CVCL_A498) renal cell carcinoma, NCI-H211 (ATCC, cat. CRL-5824; RRID:CVCL_1529), NCI-H196 (ATCC, cat. CRL-5823, RRID:CVCL_1509), SW 1271 (ATCC, cat. CRL-2177, RRID:CVCL_1716) and NCI-H1876 (ATCC, cat. CRL-5902, RRID:CVCL_1503) small cell lung carcinomas, MDA-MB-231 (RRID:CVCL_0062) and MDA-MB-468 (RRID:CVCL_0419)breast carcinomas (10-12). Pooled donor human umbilical vein endothelial cells (HUVEC, Lonza, cat. CC-2519) and human mesenchymal stem cells (hMSC, Lonza, cat. PT-2501) were purchased from Lonza (Walkersville, MD).
Cell Culture. All cells were maintained in an incubator at 37 degrees C and 5% CO2 with 95% humidity. The PDC lines were cultured according to standard operating procedures established by the NCI PDMR (https://pdmr.cancer.gov). Briefly all PDCs were thawed and cultured in Matrigel-coated flasks prepared with a working solution of 1X Ham's F-12 nutrient mix, without supplementation (Invitrogen, Waltham, MA, cat. 11765054), 100 U/mL penicillin-streptomycin (Invitrogen, cat. 15140122), and 2.5% Matrigel (Corning Inc., Corning, NY, cat. 354248) for the first three passages. […]

[1] = curve of first compound, second compound 0.1 µM
[2] = curve of first compound, second compound 0.316 µM
[3] = curve of first compound, second compound 1 µM
[4] = curve of first compound, second compound 3.16 µM
[5] = curve of first compound, second compound 10 µM
[6] = second compound 0.1 µM, first compound 0.00316 µM
[7] = second compound 0.1 µM, first compound 0.01 µM
[8] = second compound 0.1 µM, first compound 0.0316 µM
[9] = second compound 0.1 µM, first compound 0.1 µM
[10] = second compound 0.316 µM, first compound 0.00316 µM
[11] = second compound 0.316 µM, first compound 0.01 µM
[12] = second compound 0.316 µM, first compound 0.0316 µM
[13] = second compound 0.316 µM, first compound 0.1 µM
[14] = second compound 1 µM, first compound 0.00316 µM
[15] = second compound 1 µM, first compound 0.01 µM
[16] = second compound 1 µM, first compound 0.0316 µM
[17] = second compound 1 µM, first compound 0.1 µM
[18] = second compound 3.16 µM, first compound 0.00316 µM
[19] = second compound 3.16 µM, first compound 0.01 µM
[20] = second compound 3.16 µM, first compound 0.0316 µM
[21] = second compound 3.16 µM, first compound 0.1 µM
[22] = second compound 10 µM, first compound 0.00316 µM
[23] = second compound 10 µM, first compound 0.01 µM
[24] = second compound 10 µM, first compound 0.0316 µM
[25] = second compound 10 µM, first compound 0.1 µM

| SMILES | IC50 [1] [nM] | IC50 [2] [nM] | IC50 [3] [nM] | IC50 [4] [nM] | IC50 [5] [nM] | viability, T/C [6] [%] | viability, T/C [7] [%] | viability, T/C [8] [%] | viability, T/C [9] [%] | viability, T/C [10] [%] | viability, T/C [11] [%] | viability, T/C [12] [%] | viability, T/C [13] [%] | viability, T/C [14] [%] | viability, T/C [15] [%] | viability, T/C [16] [%] | viability, T/C [17] [%] | viability, T/C [18] [%] | viability, T/C [19] [%] | viability, T/C [20] [%] | further results |
| --- | --- | --- | --- | --- | --- | --- | --- | --- | --- | --- | --- | --- | --- | --- | --- | --- | --- | --- | --- | --- | --- |
| Cn1ncnc1C1c2n[nH]c(=O)c3cc(F)cc(c23)NC1c1ccc(F)cc1 (configuration not stated) + NC1CCC(NC2CC2c2ccccc2)CC1 | > 100 | > 100 | > 100 | > 100 | > 100 | 117 | 113 | 109 | 109 | 121 | 117 | 115 | 113 | 114 | 115 | 110 | 105 | 112 | 109 | 106 | viability, T/C (second compound 0.1 µM, first compound 0.000316 µM): 117%; viability, T/C (second compound 0.1 µM, first compound 0.001 µM): 114%; viability, T/C (second compound 0.316 µM, first compound 0.000316 µM): 127%; viability, T/C (second compound 0.316 µM, first compound 0.001 µM): 118%; viability, T/C (second compound 1 µM, first compound 0.000316 µM): 109%; viability, T/C (second compound 1 µM, first compound 0.001 µM): 115%; viability, T/C (second compound 3.16 µM, first compound 0.000316 µM): 107%; viability, T/C (second compound 3.16 µM, first compound 0.001 µM): 106%; viability, T/C [21]: 98.8%; viability, T/C (second compound 10 µM, first compound 0.000316 µM): 90.5%; viability, T/C (second compound 10 µM, first compound 0.001 µM): 88.1%; viability, T/C [22]: 91.5%; viability, T/C [23]: 89.3%; viability, T/C [24]: 91.5%; viability, T/C [25]: 84.1% |
| Nc1ncn(C2CC(O)C(CO)O2)c(=O)n1 (configuration not stated) + NC1CCC(NC2CC2c2ccccc2)CC1 | > 1000 | > 1000 | > 1000 | > 1000 | 628 | 115 | 117 | 97.1 | 82.6 | 127 | 108 | 95.3 | 92.2 | 118 | 99 | 96.7 | 82.5 | 103 | 117 | 82.8 | viability, T/C (second compound 0.1 µM, first compound 0.316 µM): 72.8%; viability, T/C (second compound 0.1 µM, first compound 1 µM): 56%; viability, T/C (second compound 0.316 µM, first compound 0.316 µM): 71.4%; viability, T/C (second compound 0.316 µM, first compound 1 µM): 63.1%; viability, T/C (second compound 1 µM, first compound 0.316 µM): 70.1%; viability, T/C (second compound 1 µM, first compound 1 µM): 59%; viability, T/C [21]: 82%; viability, T/C (second compound 3.16 µM, first compound 0.316 µM): 65.2%; viability, T/C (second compound 3.16 µM, first compound 1 µM): 52.6%; viability, T/C [22]: 79.2%; viability, T/C [23]: 80.2%; viability, T/C [24]: 82.6%; viability, T/C [25]: 69.6%; viability, T/C (second compound 10 µM, first compound 0.316 µM): 58.5%; viability, T/C (second compound 10 µM, first compound 1 µM): 44.6% |
| O=C(c1cc(Cc2n[nH]c(=O)c3ccccc23)ccc1F)N1CCN(C(=O)C2CC2)CC1 |  |  |  |  |  |  |  |  |  |  |  |  |  |  |  |  |  |  |  |  | viability, T/C (compound 0.0316 µM): 103%; viability, T/C (compound 0.1 µM): 103%; viability, T/C (compound 0.316 µM): 104% and 103%; viability, T/C (compound 1 µM): 96.8% and 102%; viability, T/C (compound 3.16 µM): 85% and 97%; viability, T/C (compound 10 µM): 61.8% and 74.5%; IC50 (curve of compound): > 10000 nM |
